In US20240150346A1, “CLASS OF HETEROAROMATIC COMPOUND, PREPARATION METHOD THEREFOR AND USE THEREOF” (INNOVSTONE THERAPEUTICS LIMITED, priority 2021, published 2024):

Target: T1, human-derived receptor TLR7 (Homo sapiens, UniProt Q9NYK1)
T1 construct: host or cells: HEK-Blue hTLR7 cells (HEK293-derived reporter line)
T1 sequence (Q9NYK1 27-1049): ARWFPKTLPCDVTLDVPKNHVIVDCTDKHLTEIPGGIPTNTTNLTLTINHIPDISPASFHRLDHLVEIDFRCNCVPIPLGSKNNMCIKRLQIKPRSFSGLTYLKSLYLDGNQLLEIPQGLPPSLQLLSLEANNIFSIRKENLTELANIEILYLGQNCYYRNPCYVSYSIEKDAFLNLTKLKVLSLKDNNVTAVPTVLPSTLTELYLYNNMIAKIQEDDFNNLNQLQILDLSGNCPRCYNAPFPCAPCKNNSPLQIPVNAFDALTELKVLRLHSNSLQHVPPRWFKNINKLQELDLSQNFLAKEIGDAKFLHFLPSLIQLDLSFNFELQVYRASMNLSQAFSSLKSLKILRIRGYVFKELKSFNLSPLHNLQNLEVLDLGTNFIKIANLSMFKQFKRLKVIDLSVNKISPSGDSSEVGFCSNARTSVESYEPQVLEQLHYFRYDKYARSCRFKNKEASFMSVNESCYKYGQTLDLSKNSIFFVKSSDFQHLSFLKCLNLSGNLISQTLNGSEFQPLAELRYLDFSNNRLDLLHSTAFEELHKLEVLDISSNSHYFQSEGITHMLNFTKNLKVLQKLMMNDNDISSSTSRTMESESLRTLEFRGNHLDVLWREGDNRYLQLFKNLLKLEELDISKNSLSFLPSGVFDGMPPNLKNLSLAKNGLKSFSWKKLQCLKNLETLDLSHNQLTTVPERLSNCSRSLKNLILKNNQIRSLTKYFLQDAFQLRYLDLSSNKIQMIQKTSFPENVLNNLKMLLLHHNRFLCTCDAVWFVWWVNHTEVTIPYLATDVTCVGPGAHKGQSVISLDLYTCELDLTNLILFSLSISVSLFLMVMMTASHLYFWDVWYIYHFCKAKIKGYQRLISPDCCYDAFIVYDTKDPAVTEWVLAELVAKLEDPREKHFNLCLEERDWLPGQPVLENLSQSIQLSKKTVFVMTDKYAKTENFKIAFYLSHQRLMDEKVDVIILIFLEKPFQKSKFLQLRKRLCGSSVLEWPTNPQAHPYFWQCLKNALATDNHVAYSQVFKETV
Experiment: Assay on agonistic activity for human-derived receptor TLR7 (HEK-Blue hTLR7 cells, HEK-Blue Detection Medium)
Assay type: cell-based
Conditions: 16 h incubation, absorbance at 655 nm, read-out: EC50
Description: HEK-Blue™ hTLR7 cells (InvivoGen, hkb-htlr7) were cultured in a DMEM complete medium (Gibco, 12100) containing 10% FBS (Invitrogen, 10099141), 1% P/S (Invitrogen, 15140122), 10 μg/mL Blasticidin (InvivoGen, ant-bl-1), 100 μg/mL Zeocin (InvivoGen, ant-zn-1), and 100 μg/mL Normocin (InvivoGen, ant-nr-1). The cells were cultured in an incubator at 37° C. with 5% CO2. When HEK-Blue™ hTLR7 cells reached a growth density of 70%-80%, cell passage was needed.
The agonistic activity for the human-derived receptor TLR7 by HEK-Blue™ hTLR7 cells was assayed by HEK-Blue™ Detection Medium (InvivoGen, hd-det2). First, a bag of HEK-Blue™ Detection Medium powder was dissolved in 50 mL of ultra-pure sterile water for complete dissolution, and then the dissolved medium was filtered into a new 50 mL centrifuge tube through a 0.22 μm filter. Finally, antibiotics were added into the filtered detection medium until the final concentration was 1% for P/S and 100 μg/mL for Normocin. HEK-Blue™ Detection Medium was pre-heated to 37° C. in advance on the day of the assay on the activity for the TLR7 receptor, and the temperature was always maintained at 37° C.
The compound powder was dissolved in 100% DMSO (Sigma, D2650-100ML) to obtain a 10 mM stock solution, and the compound was completely dissolved by shaking with an oscillator. The stock solution of the compound was subjected to a 5-fold dilution to 2 mM with 100% DMSO. This was followed by a 3-fold serial dilution for a total of 8 concentration gradients. Then, each of the concentration gradients was subjected to a 20-fold dilution to 100 μM, 33.3 μM, 11.1 μM, 3.7 μM, 1.23 μM, […], 0.114 μM, and 0.05 μM using HEK-Blue™ Detection Medium. 20 μL of each of the dilutions was added to a 96-well cell culture plate (Corning, 3599).
On the day of the assay on the agonistic activity for the human-detived receptor TLR7, HEK-Blue™ hTLR7 cells has a growth density of 70%-80%, and the cell medium was removed. 1 mL of cell dissociation buffer (Gibco, 13151-014) was added to each 100 mm cell culture dish, and the cells were incubated in an incubator at 37° C. for 5 min. The cells were pipetted using a DMEM cell medium to obtain a single cell suspension, which was then centrifuged at 1000 rpm for 10 min to collect the cell pellet. The cell pellet was resuspended with HEK-Blue™ Detection Medium pre heated to 37° C. The cells were counted and diluted to 220,000 cells/mL. Finally, 180 μL of cell suspension (40,000 cells/well) was added to each well of the 96-well cell culture plate to which the compound had been added, and the cell suspension was mixed with the compound using a pipettor. Final concentrations of the compound were 10 μM, 3.3 μM, 1.1 μM, 0.37 μM, 0.12 μM, 0.04 μM, 0.01 μM, and 0.005 μM. After incubation in an incubator at 37° C. for 16 h, the absorbance was read at 655 nm using an M5e microplate reader (MD, USA).
The EC50 of the compound was calculated using the software GraphPad Prism (GraphPad Software, USA). The background reading of the detection culture was subtracted from the absorbance readings at 655 nm of all wells of the 96-well plate, the ratio of each well to the negative control well (the well without the compound) was calculated, and then the percentage of the ratio of each well to the positive control well (the well treated with 10 μM positive compound), i.e., the percentage of activity, was calculated. Finally, the sigmoidal dose-response (variable slope) curve between the percentage of activity and the concentration of the compound was calculated using the software GraphPad Prism to calculate the EC50 of the compound. […]

| Compound | EC50 |
| --- | --- |
| CCCCOc1nc(N)c2[nH]c(=O)n(Cc3cccc(CN4CCCC4=O)c3)c2n1 [Example 42, 6-amino-2-butoxy-9-(3-((2-oxopyrrolidin-1-yl)methyl)benzyl)-7,9-dihydro-8H-purin-8-one] | < 50 nM |
| CCCCOc1nc(N)c2[nH]c(=O)n(Cc3ccc(CN4CCCC4)s3)c2n1 [Example 43, 6-amino-2-butoxy-9-((5-(pyrrolidin-1-ylmethyl)thien-2-yl)methyl)-7,9-dihydro-8H-purin-8-one] | < 50 nM |
| CCCCOc1nc(N)c2[nH]c(=O)n(Cc3ccc(CN4CCC(O)C4)s3)c2n1 (stereo not drawn) [Example 44, 6-amino-2-butoxy-9-((5-((3-hydroxypyrrolidin-1-yl)methyl)thien-2-yl)methyl)-7,9-dihydro-8H-purin-8-one] | < 50 nM |
| CCCCOc1nc(N)c2[nH]c(=O)n(Cc3ccc(CN4CCN(C(=O)CN)CC4)s3)c2n1 [Example 45, 6-amino-2-butoxy-9-((5-((4-glycylpiperazin-1-yl)methyl)thien-2-yl)methyl)-7,9-dihydro-8H-purin-8-one] | < 50 nM |
| CCCCOc1nc(N)c2[nH]c(=O)n(Cc3ccc(CN4CCN(C(=O)COC)CC4)s3)c2n1 [Example 48] | < 50 nM |
| CCCCOc1nc(N)c2[nH]c(=O)n(Cc3ccc(CN4CCC(N)C4)s3)c2n1 (stereo not drawn) [Example 49, 6-amino-9-((5-((3-aminopyrrolidin-1-yl)methyl)thien-2-yl)methyl)-2-butoxy-7,9-dihydro-8H-purin-8-one] | < 50 nM |
| CCCCOc1nc(N)c2c(n1)CN(Cc1ccc(C(=O)N3CCCC3)cc1)C(=O)N2 [Example 50, 8-amino-6-butoxy-3-(4-(pyrrolidin-1-ylcarbonyl)benzyl)-3,4-dihydropyrimido[5,4-d]pyrimidin-2(1H)-one] | < 50 nM |
| CCCCOc1nc(N)c2c(n1)CN(Cc1ccc(Cn3ccnc3)c(C)c1)C(=O)N2 [Example 76] | 50 to 100 nM |
| CCCCOc1nc(N)c2c(n1)CN(Cc1ccc(C)c(CN3CCCC3)c1)C(=O)N2 [Example 78] | < 50 nM |
| Nc1nc2ccccc2c2c1[nH]c(=S)n2Cc1ccc(CN2CCCC2)cc1 [Example 155, 4-amino-1-(4-(pyrrolidin-1-ylmethyl)benzyl)-1,3-dihydro-2H-imidazo[4,5-c]quinoline-2-thione] | < 50 nM |
| CCSc1nc2c(N)nc3ccccc3c2n1Cc1ccc(CN2CCCC2)cc1 [Example 156] | < 50 nM |
| COCSc1nc2c(N)nc3ccccc3c2n1Cc1ccc(CN2CCCC2)cc1 [Example 157] | < 50 nM |
| CCCCSc1nc2c(N)nc3ccccc3c2n1Cc1ccc(CN2CCCC2)cc1 [Example 161] | 50 to 100 nM |
| C=CCCSc1nc2c(N)nc3ccccc3c2n1Cc1ccc(CN2CCCC2)cc1 [Example 165] | 50 to 100 nM |
| Nc1nc2ccccc2c2c1nc(SCC(F)F)n2Cc1ccc(CN2CCCC2)cc1 [Example 179] | < 50 nM |
| Nc1nc2ccccc2c2c1nc(SCCC(F)(F)F)n2Cc1ccc(CN2CCCC2)cc1 [Example 181] | < 50 nM |
| CSc1nc2c(N)nc3ccccc3c2n1Cc1ccc(CNC(C)C)cc1 [Example 188] | 50 to 100 nM |
| CCSc1nc2c(N)nc3ccccc3c2n1Cc1ccc(CNC(C)C)cc1 [Example 191] | < 50 nM |
| CCSc1nc2c(N)nc3ccccc3c2n1Cc1ccc(CN2CC(O)C2)cc1 [Example 207] | 50 to 100 nM |
| C=CCSc1nc2c(N)nc3ccccc3c2n1Cc1ccc(CN2CC[C@H](F)C2)cc1 [Example 210] | 50 to 100 nM |
| C=CCSc1nc2c(N)nc3ccccc3c2n1Cc1ccc(CN2CC[C@@H](F)C2)cc1 [Example 211] | 50 to 100 nM |
| CSc1nc2c(N)nc3ccccc3c2n1Cc1ccc(N2CCN(C)CC2)cc1 [Example 212] | < 50 nM |
| CSc1nc2c(N)nc3ccccc3c2n1Cc1ccc(CN2CCNCC2)cc1 [Example 213] | 50 to 100 nM |
| CCSc1nc2c(N)nc3ccccc3c2n1Cc1ccc(CN2CCNCC2)cc1 [Example 214] | 50 to 100 nM |
| C=CCSc1nc2c(N)nc3ccccc3c2n1Cc1ccc(CN2CCNCC2)cc1 [Example 215] | < 50 nM |
| CSc1nc2c(N)nc3ccccc3c2n1Cc1ccc(OCCN(C)C)nc1 [Example 223] | 50 to 100 nM |
| COc1cc(CN2CCCC2)ccc1Cn1c(SC)nc2c(N)nc3ccccc3c21 [Example 233] | < 50 nM |

Now from value to molecule:

| EC50 | Compound |
| --- | --- |
| < 50 nM | CCCCOc1nc(N)c2[nH]c(=O)n(Cc3ccc(CN4CCNCC4)s3)c2n1 [Example 46] |
| < 50 nM | CCCCOc1nc(N)c2[nH]c(=O)n(Cc3ccc(CN4CCN(C(=O)CO)CC4)s3)c2n1 [Example 47] |
| 50 to 100 nM | CCCCOc1nc(N)c2c(n1)CN(Cc1ccc(CN3CCCC3)c(C)c1)C(=O)N2 [Example 66] |
| 50 to 100 nM | CCN(CC)Cc1ccc(Cn2c(=O)[nH]c3c(N)nc4ccccc4c32)cc1C [Example 113] |
| < 50 nM | CCCSc1nc2c(N)nc3ccccc3c2n1Cc1ccc(CN2CCCC2)cc1 [Example 159] |
| < 50 nM | Nc1nc2ccccc2c2c1nc(SCC1CC1)n2Cc1ccc(CN2CCCC2)cc1 [Example 163] |
| < 50 nM | C=CCSc1nc2c(N)nc3ccccc3c2n1Cc1ccc(CN2CCCC2)cc1 [Example 166] |
| 50 to 100 nM | N#CCCSc1nc2c(N)nc3ccccc3c2n1Cc1ccc(CN2CCCC2)cc1 [Example 177] |
| 50 to 100 nM | Nc1nc2ccccc2c2c1nc(SCCF)n2Cc1ccc(CN2CCCC2)cc1 [Example 178] |
| 50 to 100 nM | CSc1nc2c(N)nc3ccccc3c2n1Cc1ccc(CN(C)C)cc1 [Example 189] |
| 50 to 100 nM | CCSc1nc2c(N)nc3ccccc3c2n1Cc1ccc(CN(C)C)cc1 [Example 190] |
| 50 to 100 nM | CSc1nc2c(N)nc3ccccc3c2n1Cc1ccc(-c2cnn(CCNC3CCC3)c2)cc1 [Example 196] |
| 50 to 100 nM | CSc1nc2c(N)nc3ccccc3c2n1Cc1ccc(CN2CC(O)C2)cc1 [Example 206] |
| 50 to 100 nM | CCSc1nc2c(N)nc3ccccc3c2n1Cc1ccc(CN2CC[C@H](O)C2)cc1 [Example 209] |
| 50 to 100 nM | CSc1nc2c(N)nc3ccccc3c2n1Cc1ccc(CN2CCNCC2)s1 [Example 220] |
